pEC50: −log10 of the molar value. Read-outs that look alike come from different tables or passages of the source.
Tests used:
[1] = system: PAE-GFP cells; test: Tubule formation assay on gelled BME, quantified with AngioApplication; assay type: cell-based, porcine; details: for pEC50: Sus scrofa
Description: This example describes exemplary procedures for measuring the ability of the cell lines disclosed herein for tubule formation potential. 50 μl of low growth factor BME (Basement Membrane Extract, Trevigen, Inc. Gaithersburg, Md.) were laid down in each well and the plate was incubated for 1 hour at 37° C. The extract gels at 37° C. to form a reconstituted basement membrane and stimulates tubule formation by endothelial cells. The major components of the Basement Membrane Extract (BME) include laminin I, collagen IV, entactin, and heparin sulfate proteoglycan. 15,000 PAE-GFP cells were then added on top of the gelled BME and images were acquired with a fluorescent microscope after 3.5-24 hours. Cells were imaged on the BD Pathway™ Bioimager. […] Tubule formation assays were quantified using the Java based software AngioApplication™. AngioApplication™ has been specifically designed for the quantification of tubule formation assays. Several morphological parameters were assessed in images including the total area of the tubules, the total number of tubules, number of nodes, number of branch points, the number of tubes per node, or node.
As shown in FIG. 7A increasing concentrations of suramin causes disruption of tubule formation. AngioApplication™ was used to automatically assess tube length at several concentrations of suramin. Traditionally quantification of tube formation was based in the measurement of complete (long) tubes in the image. AngioApplication™ determined that as the concentration of suramin was increased the number of long tubules was diminished. […] In addition, because AngioApplication™ calculates the length for all tubes in the image (including incomplete tubes) a more refined analysis was performed using the measurement of short (or incomplete) tubules. […] This is in agreement with the fact that Suramin interferes with the mechanism of tube formation.

[2] = system: PAE cells; test: 3D co-culture of fluorescent PAE cells with leiomyosarcoma HTB-88 xenograft biopsy tissue; assay type: cell-based, porcine; details: 100 μg/ml, six days, FIG. 30
Description: Xenografts were prepared as in Example 7. Tumor xenografts were dissected when they reached about 1 cm in diameter and put into the sterile 15 ml or 50 ml tubes (Corning) with RPMI1640 medium supplemented with 10% FBS, 1% Glucose (Sigma), and 4× Antibiotic-Antimycotic (Invitrogen). The tumor xenografts were placed on wet ice and shipped to the lab within 2-3 hours. The Xenografts were rinsed 3 times in 70% ethanol and then 3 times in PBS. In the hood, the core biopsy was performed by biopsy punch (Miltex, Inc.) and was washed out into a 100 cm cell culture dish (Corning) by using a pipette to blow the top opening of the biopsy applicator. Using a disposable scalpel (Feather Safety Razor, Co. Japan), the core biopsy was dissected in three stages. 1 mm of both ends of the core biopsy was carefully cut off; they were transferred into a new 100 cm cell culture dish labeled P (peripheral section). Next, 1 mm of both ends of the remaining core biopsy were removed and discarded. […]
3D co-cultures were prepared as follows: 50 μl 1% SEAKEM™ LE agarose were added to individual wells of a 96-well plate and allowed to solidify at room temperature for 20 minutes. […] Cultures were incubated at 37° C. for 5-20 days and endothelial vessel network formation was observed by confocal laser scanning fluorescence microscopy. […]

[3] = system: HMEC-1; test: 3D co-culture of HMEC-1 with leiomyosarcoma HTB-88 core biopsy xenograft, panel of angiogenesis inhibitors; assay type: cell-based, human; details: 100 μg/ml, five-day incubation, versus Thalidomide, Sunitinib, Fumagillin
Description: Peripheral ringlet xenograft tissue/HMEC-1 co-cultures were incubated with Avastin®, Thalidomide, Sunitinib or Fumagilin.
3D co-cultures were prepared as follows: 50 μl 1% SEAKEM™ LE agarose were added to individual wells of a 96-well plate and allowed to solidify at room temperature for 20 minutes. 30 μl GELTREX® gel matrix (Invitrogen) were combined with PAE, LEC or HMEC-1 cells at a cell density of 560,000 cells/ml and added to each well of the plate (atop the solidified agarose). Plates were maintained on wet ice (4° C.) to prevent solidification of the gel matrix/cell mixture (the second layer). A single tumor cell spheroid colony or single ringlet of xenograft core biopsy was added to the center of the well and the matrix gel was solidified at 37° C. On top of the tumor/endothelial cell gel layer, 80 μl EBM-2+1% FBS were added to a final concentration of EMB-2+0.5% FBS in relation to the total volume of the culture. Cultures were incubated at 37° C. for 5-20 days and endothelial vessel network formation was observed by confocal laser scanning fluorescence microscopy. […]
Identifying the most efficacious therapy for a particular patient is a crucial goal for successful cancer treatment. […] Several FDA approved anti-angiogenic compounds were assessed in this capacity, including Avastin®, Thalidomide, and Sunitinib as well as the non-FDA approved drug Fumagillin.

| Compound | effect on tubule formation ([1]; PAE green cells, 0 to 26 μM) | pEC50 ([1]; read-out: EC50, number of long tubules) | pEC50 ([1]; read-out: EC50, number of short (incomplete) tubules) | pEC50 ([1]; read-out: EC50 calculated, tubule formation) | effect on PAE proliferation [2] | effect on tubule formation [2] | inhibition of proliferation, compared with the other inhibitors [3] | inhibition of tubule formation, compared with the other inhibitors [3] |
| --- | --- | --- | --- | --- | --- | --- | --- | --- |
| Cc1ccc(C(=O)Nc2ccc(S(=O)(=O)O)c3cc(S(=O)(=O)O)cc(S(=O)(=O)O)c23)cc1NC(=O)c1cccc(NC(=O)Nc2cccc(C(=O)Nc3cc(C(=O)Nc4ccc(S(=O)(=O)O)c5cc(S(=O)(=O)O)cc(S(=O)(=O)O)c45)ccc3C)c2)c1 [suramin] | inhibited tubule formation | ~4.59 | ~4.59 | ~4.59 |  |  |  |  |
| Avastin®: monoclonal antibody directed against an isoform of VEGF, FDA-approved angiogenesis inhibitor |  |  |  |  | inhibited | inhibited | greatest inhibition | greatest inhibition |

Source: US8679836B2, “Methods of monitoring angiogenesis and metastasis in three dimensional co-cultures” (The United States of America, as represented by the …, priority 2007, dated 2014)
